Results from patent US7884129B2, “Composition comprising the alcohol compound isolated from the extract of cucurbitaceae family plant having anti-adipogenic and anti-obesity activity” (Helixir Co., Ltd., priority 2003, dated 2011).

Tests used:
Preadipocytes (3T3-L1) = test: Inhibition of adipocyte differentiation and triglyceride level (Oil Red O staining); type: cell-based
Experimental: To determine the inhibiting activity of the compound prepared by Examples 1, i.e., dehydrodiconiferylalcohol (DHCA), on the adipocytes differentiation and triglyceride level, following experiment was performed.
Preadipocytes (3T3-L1) purchased from ATCC (American […], USA) were cultured in RPMI medium containing 10% FBS and MDI cocktail (isobutylmethylxanthine, dexamethasone, insulin) was added thereto for differentiating into mature adipocytes. After two days, the medium was replaced and treated with only insulin. Thereafter, the medium was replaced and equal concentration of insulin was treated again every other day. DHCA ranging from 10 to 1000 ug/ml of the concentrations was treated when the adipocyte differentiation was induced and equal concentration of the DHCA was treated at every replacement of the medium. Troglitazone (Sigma Co.) and 10 uM SB203580 (Sigma Co.) were treated as control groups and 0.01% ethanol was used as a vehicle control. After eight days lapsed, the accumulated fat within differentiated cell was stained with Oil Red 0 staining reagent and the absorbance was determined with optical density qualitatively at 490 nm. The inhibition percentage (%) was calculated by following Empirical Formula 1. The Inhibition Percentage (%)=[O.D. of test group]/[O.D. value of control group]×100 Empirical Formula 1

PPAR α = biological target: T1, PPAR α (Homo sapiens, UniProt Q07869); test: PPAR α activation, tkPPRE-luciferase reporter in transfected CV-1 cells; type: cell-based; conditions: 24 hours
T1 construct: expressed in transfected cells; host or cells: CV-1 cells
T1 sequence (Q07869 1-468): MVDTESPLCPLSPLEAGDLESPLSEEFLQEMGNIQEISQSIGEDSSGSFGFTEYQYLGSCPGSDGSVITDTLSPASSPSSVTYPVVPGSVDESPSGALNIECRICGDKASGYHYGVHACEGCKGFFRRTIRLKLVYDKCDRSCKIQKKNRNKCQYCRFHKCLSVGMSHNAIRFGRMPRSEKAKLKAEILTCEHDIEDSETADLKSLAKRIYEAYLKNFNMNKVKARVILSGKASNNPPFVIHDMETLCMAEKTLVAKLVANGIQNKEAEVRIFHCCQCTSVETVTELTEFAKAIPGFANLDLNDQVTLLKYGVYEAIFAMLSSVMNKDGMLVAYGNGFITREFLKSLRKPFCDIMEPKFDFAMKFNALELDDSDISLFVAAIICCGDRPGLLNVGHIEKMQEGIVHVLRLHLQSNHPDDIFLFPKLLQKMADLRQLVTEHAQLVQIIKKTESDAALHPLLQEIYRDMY
T1 sequence (P19793 1-462 partner): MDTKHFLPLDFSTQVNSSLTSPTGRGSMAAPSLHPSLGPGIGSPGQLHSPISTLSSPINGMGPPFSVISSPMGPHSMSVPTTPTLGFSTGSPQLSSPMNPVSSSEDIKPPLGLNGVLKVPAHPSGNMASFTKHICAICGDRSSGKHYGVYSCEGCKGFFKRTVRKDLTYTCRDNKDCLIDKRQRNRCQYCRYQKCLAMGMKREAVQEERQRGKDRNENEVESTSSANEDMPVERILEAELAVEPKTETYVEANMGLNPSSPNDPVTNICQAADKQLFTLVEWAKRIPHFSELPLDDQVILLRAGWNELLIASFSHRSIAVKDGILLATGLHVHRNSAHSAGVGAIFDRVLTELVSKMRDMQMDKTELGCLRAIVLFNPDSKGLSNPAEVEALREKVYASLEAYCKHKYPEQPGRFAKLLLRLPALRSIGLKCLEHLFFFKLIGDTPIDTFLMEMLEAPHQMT
Experimental: To determine the regulating activity of the compound prepared by Example 1 on the PPAR α activation, following experiment was performed.
CV-1 cells were transiently cotransfected with both tkPPRE-luciferase and pCMV-PPAR α, together with pCMV-RXR and pCMV-β-Gal as a transfection control. Cells were treated with DHCA or various fractions, i.e. hexane and ethylacetate fractions obtained from this Cucurbitaceae family plant extract at the concentration of 100 ug/ml. Cells were also treated with DMSO or fenofibrate (100 uM, Sigma Co.), which is a well known agonist of PPARα. After 24 hours, cell lysates were prepared for the luciferase assay, and the activities were normalized to β-Gal activities.

increase of luciferase activity as compared with control (PPAR α; 100 ug/ml, normalized to β-Gal): 10 folds
Compound: COc1cc(C2Oc3c(OC)cc(/C=C/CO)cc3C2CO)ccc1O (stereo not shown) [DHCA, dehydrodiconiferyl alcohol]
anti-adipogenic activity compared with SB203580 (Preadipocytes (3T3-L1); 3T3-L1, SB203580 10 uM as control): comparable to that of SB203580
level of produced triglycerides and adipocytes differentiation (Preadipocytes (3T3-L1); 3T3-L1 induced with MDI, 8 days, Oil Red O, O.D. 490 nm, DHCA 10 to 1000 ug/ml): significantly reduced in a dose dependent manner
magnitude of PPAR α activation compared with fenofibrate (PPAR α; DHCA 100 ug/ml vs fenofibrate 100 uM): higher than that of fenofibrate treated cells
